Results on 6 compounds are retold here after ChEMBL document CHEMBL6078702, “Hypoxia-selective prodrug restrains tumor cells through triggering mitophagy and inducing apoptosis” (Eur J Med Chem, 2025).

For data set [1], the system named is HeLa. The data set can be described thus: Cytotoxicity against human HeLa cells under hypoxic condition incubated for 48 hrs by MTT assay. The data set is classed as functional, cell-based.
Data set [2] has as its system HeLa. As to the kind of experiment: Cytotoxicity against human HeLa cells under normoxia condition incubated for 48 hrs by MTT assay. The data set is classed as functional, cell-based. (In general: Formazan colour is commonly taken as a measure of viable cells.)
Data set [3] deals with HepG2. The data set can be described thus: Cytotoxicity against human HepG2 cells under normoxia condition incubated for 48 hrs by MTT assay. Type of data set: functional, cell-based. The note with it: HepG2, 48 h.
Data set [4] deals with HepG2. As to the kind of experiment: Cytotoxicity against human HepG2 cells under hypoxic condition incubated for 48 hrs by MTT assay. Type of data set: functional, cell-based. The note with it: HepG2, 48 h.
A short description of data set [5]: Acute toxicity in BALB/c nude mouse xenografted with human HeLa cells assessed as damage in lung at 1000 mg/kg, ip by H and E staining based analysis. Type of data set: organism-based. The conditions noted are these: in vivo. For orientation: A xenograft is tissue or cells of one species grown in another, often human tumour cells in immunodeficient mice.
The nature of data set [6]: Acute toxicity in BALB/c nude mouse xenografted with human HeLa cells assessed as damage in liver at 1000 mg/kg, ip by H and E staining based analysis. The data set is classed as organism-based. The conditions noted are these: in vivo.
Data set [7] is described as follows: Toxicity in BALB/c nude mouse xenografted with human HeLa cells assessed as animal mortality at 25 to 50 mg/kg, ip qd for 14 days. The data set is classed as organism-based. The conditions noted are these: in vivo, dose 25-50 mg/kg, time 14 day.
Data set [8] has as its system HeLa. The data set can be described thus: Induction of mitophagy in human HeLa cells under hypoxic condition assessed as co-localization of mitochondria and lysosomes at 5 uM incubated for 24 hrs by CLSM analysis. Type of data set: functional, cell-based.
The subject of data set [9] is HeLa. The data set can be described thus: Antitumor activity against human HeLa cells xenografted in BALB/c nude mouse at 25 mg/kg, ip qd for 14 days relative to control. Type of data set: functional. The note with it: 336 h, time 14 day, read-out: TGI.
In data set [10] the test system is HeLa. As to the kind of experiment: Induction of mitophagy in human HeLa cells under hypoxic condition assessed as encapsulation of mitochondria in vacuoles at 10 uM incubated for 48 hrs by TEM analysis. The data set is classed as functional, cell-based.
Data set [11] concerns HeLa. The data set can be described thus: Induction of morphological change in mitochondria in human HeLa cells under hypoxic condition assessed as formation of vacuoles at 5 to 10 uM incubated for 48 hrs by TEM analysis. Type of data set: functional, cell-based. The conditions noted are these: dose 5-10 µM.
In data set [12] the test system is HeLa. As to the kind of experiment: Induction of apoptosis in human HeLa cells under hypoxic condition assessed as viable cells at 5 uM incubated for 48 hrs by Annexin V-FITC/PI staining based flow cytometry (reference value: 98.13 %). The data set is classed as functional. The note with it: read-out: Activity. In general terms: Flow cytometry measures light scatter and fluorescence of single cells or particles in a stream.

Data set [13] concerns HeLa. As to the kind of experiment: Induction of morphological damage in human HeLa cells under hypoxic condition by Hoechst 33342 staining based analysis. The data set is classed as functional, cell-based.
Data set [14] deals with HeLa. As to the kind of experiment: Induction of mitophagy in human HeLa cells under hypoxic condition assessed as increase in ratio of LC3-II to LC3-I levels incubated for 24 hrs by Western blot analysis. Type of data set: functional, cell-based. The conditions noted are these: dose 1-10 µM.
Data set [15] has as its system HeLa. The data set can be described thus: Antitumor activity against human HeLa cells xenografted in BALB/c nude mouse at 50 mg/kg, ip qd for 14 days relative to control. The data set is classed as functional. The note with it: 336 h, time 14 day, read-out: TGI.
Data set [16] is described as follows: Acute toxicity in BALB/c nude mouse xenografted with human HeLa cells assessed as damage in spleen at 1000 mg/kg, ip by H and E staining based analysis. The note with it: in vivo. The data set is classed as organism-based.
Data set [17] is described as follows: Toxicity in BALB/c nude mouse xenografted with human HeLa cells assessed as body weight change at 25 to 50 mg/kg, ip qd for 14 days. The note with it: in vivo, 336 h, dose 25-50 mg/kg, time 14 day. Type of data set: organism-based.
The nature of data set [18]: Acute toxicity in BALB/c nude mouse xenografted with human HeLa cells assessed as damage in heart at 1000 mg/kg, ip by H and E staining based analysis. Type of data set: organism-based. The conditions noted are these: in vivo.
The subject of data set [19] is HeLa. As to the kind of experiment: Induction of mitophagy in human HeLa cells under hypoxic condition assessed as decrease in p62 level incubated for 24 hrs by Western blot analysis. Type of data set: functional, cell-based. The note with it: dose 1-10 µM.
In data set [20] the test system is HeLa. The data set can be described thus: Antitumor activity against human HeLa cells xenografted in BALB/c nude mouse assessed as tumor growth suppression at 25 to 50 mg/kg, ip qd for 14 days. The data set is classed as functional, organism-based. The note with it: dose 25-50 mg/kg, time 14.0 day.
Data set [21] concerns HeLa. The data set can be described thus: Induction of morphological change in mitochondria in human HeLa cells under hypoxic condition assessed as formation of multi-lamellar globules at 5 uM incubated for 48 hrs by TEM analysis. Type of data set: functional, cell-based.
Data set [22] has as its system HeLa. As to the kind of experiment: Induction of morphological change in mitochondria in human HeLa cells under hypoxic condition assessed as disappearance of cristae at 5 to 10 uM incubated for 48 hrs by TEM analysis. Type of data set: functional, cell-based. The note with it: dose 5-10 µM.
Data set [23] deals with HeLa. The data set can be described thus: Induction of apoptosis in human HeLa cells under hypoxic condition assessed as necrotic cells at 5 uM incubated for 48 hrs by Annexin V-FITC/PI staining based flow cytometry (reference value: 1.17 %). Type of data set: functional.
Data set [24] is described as follows: Acute toxicity in BALB/c nude mouse xenografted with human HeLa cells assessed as damage in kidney at 1000 mg/kg, ip by H and E staining based analysis. The note with it: in vivo. Type of data set: organism-based.
Data set [25] concerns HeLa. The data set can be described thus: Induction of mitochondrial membrane potential dissipation in human HeLa cells under hypoxic condition assessed as accumulation of green fluorescence at 5 uM incubated for 24 hrs by JC-1 staining based CLSM analysis. The data set is classed as functional, cell-based.
For data set [26], the system named is HeLa. As to the kind of experiment: Induction of apoptosis in human HeLa cells under hypoxic condition assessed as increase in cleaved caspase-3 level at 1 to 10 uM incubated for 48 hrs by Western blot analysis. The note with it: dose 1-10 µM. Type of data set: functional, cell-based.
For data set [27], the system named is HeLa. The data set can be described thus: Induction of morphological damage in human HeLa cells under normoxia condition by Hoechst 33342 staining based analysis. Type of data set: functional, cell-based.
The subject of data set [28] is HeLa. The data set can be described thus: Induction of apoptosis in human HeLa cells under hypoxic condition assessed as increase in cleaved PARP-1 level at 1 to 10 uM incubated for 48 hrs by Western blot analysis. The data set is classed as functional, cell-based. The conditions noted are these: dose 1-10 µM.
In data set [29] the test system is HeLa. The data set can be described thus: Induction of morphological change in mitochondria in human HeLa cells under hypoxic condition assessed as onion-like circle formation of cristae folds in inner membrane at 5 uM incubated for 48 hrs by TEM analysis. Type of data set: functional, cell-based.
For data set [30], the system named is HeLa. As to the kind of experiment: Induction of apoptosis in human HeLa cells under hypoxic condition assessed as early apoptotic cells at 5 uM incubated for 48 hrs by Annexin V-FITC/PI staining based flow cytometry (reference value: 0.60 %). The data set is classed as functional.
The test system of data set [31] is HeLa. The data set can be described thus: Induction of morphological change in mitochondria in human HeLa cells under hypoxic condition assessed as increase in IMMT level at 5 uM incubated for 48 hrs by immunofluorescence based analysis. Type of data set: functional, cell-based.
The test system of data set [32] is HeLa. As to the kind of experiment: Induction of mitochondrial membrane potential dissipation in human HeLa cells under hypoxic condition at 5 uM incubated for 24 hrs by flow cytometry. The data set is classed as functional, cell-based.
In data set [33] the test system is HeLa. As to the kind of experiment: Induction of apoptosis in human HeLa cells under hypoxic condition assessed as late apoptotic cells at 5 uM incubated for 48 hrs by Annexin V-FITC/PI staining based flow cytometry (reference value: 0.10 %). The data set is classed as functional.

Structures are written as SMILES. Active and inactive are the calls of the source. No cut-off for these calls is given here.

As to `COc1ccc(C(=O)/C=C/c2ccc(OC)c([N+](=O)[O-])c2)cc1F`, the IC50 (commonly the concentration needed to halve the response being measured) with HeLa [1] was > 50 µM; in the data set on HeLa [2], > 100 µM; in the data set on HepG2 [3] it was > 50 µM; in the data set with HepG2 [4] it was 23.1 µM.
Take `O=C(/C=C/c1cccc([N+](=O)[O-])c1)c1ccc(OCc2cn(CCCC[P+](c3ccccc3)(c3ccccc3)c3ccccc3)nn2)c(Br)c1`: the IC50 with HeLa [1] was > 50 µM; in the data set with HeLa [2], > 50 µM; in the data set with HepG2 [3], 12.8 µM; in the data set on HepG2 [4] it was 26.5 µM.
Turning to `COc1ccc(/C=C/C(=O)c2ccc(OCc3cn(CCCC[P+](c4ccccc4)(c4ccccc4)c4ccccc4)nn3)c(Br)c2)cc1[N+](=O)[O-]`, the IC50 was > 50 µM in the data set with HeLa [1], 10.7 µM with HeLa [2], 21.6 µM in the data set on HepG2 [3] and 19.3 µM in the data set with HepG2 [4].
As to `COc1ccc(C(=O)/C=C/c2cccc(N)c2)cc1F`, the Activity result in data set [5] and in data set [6] was “Non-toxic” throughout. Moreover, the mortality (as a rule, the percentage killed) at 336 h in data set [7] turned out to be 50%.
Turning to `COc1ccc(C(=O)/C=C/c2cccc([N+](=O)[O-])c2)cc1F`, the Activity entry was “Non-toxic” in data set [5]; “Active; Result Indicates That Mitochondria Were Removed From Cells Through Autophagosomes” with HeLa [10]; “Non-toxic” in data set [6]; “Non-toxic” in data set [16]; “Non-toxic” in [17]; “Non-toxic” in data set [18]. Also, the Activity in the data set on HeLa [23] is listed as 7.74%; in data set [24] it was “Non-toxic”; in the data set with HeLa [30], 10.21%; in the data set on HeLa [33] it was 63.25%. Also, the result in the data set with HeLa [8], in the data set with HeLa [11], in the data set with HeLa [13], with HeLa [14], in the data set on HeLa [19] and with HeLa [20] was Active. The outcome with HeLa [21], in the data set with HeLa [22], with HeLa [25], in the data set on HeLa [26], in the data set on HeLa [28] and with HeLa [29] was Active. In addition, the result in the data set on HeLa [31] and in the data set on HeLa [32] was Active. For the same compound, in the data set with HeLa [9], the inhibition in vivo at 25 mg/kg came to 30.3%. The half-maximal inhibitory concentration (IC50) in the data set with HeLa [1] was 3.3 µM; in the data set on HeLa [2] it was > 50 µM; in the data set on HepG2 [3], > 50 µM; in the data set on HepG2 [4], 5 µM. Also, the viability at 5 µM in the data set with HeLa [12] was 18.8%. In addition, the inhibition in vivo at 50 mg/kg in the data set on HeLa [15] amounted to 57.4%. For the same compound, the result in the data set with HeLa [27] was inactive.
For the compound `COc1ccc(C(=O)/C=C/c2ccc(OC)c([N+](=O)[O-])c2)cc1Br`, the IC50 was 15.1 µM in the data set on HeLa [1], > 100 µM with HeLa [2], > 50 µM in the data set on HepG2 [3] and 15.4 µM in the data set on HepG2 [4].
